From US20080318938A1, “METHODS FOR TREATING ABERRANT CELL PROLIFERATION DISORDERS” (priority 2007, published 2008)
Where two headings read alike, the source gives them in different places.

Columns and labels:
786-0 = experiment: Inhibition of cell proliferation (MTT); format: cell-based; details: Homo sapiens; 786-0, Renal; 48 hours
Method: (§1) Inhibition of cell proliferation is determined in human tumor cell lines. Innoculation density and doubling times for specific cell lines are listed at World Wide Web URL “dtp.nci.nih.gov/docs/misc/common_files/cell_list.html.”
(§2) • 1. Plate adherent cells the day before starting the experiment in 180 μl growth media (see list hereafter). • 2. Day of experiment, count and plate suspension cells in 180 μl growth media (see list on next page). • 3. Make 10× Compound, vehicle, and chemotherapeutic cocktail • a. Compound (1× to 10×) • i. 10 μM Compound to 100 μM • ii. 3 μM Compound to 30 μM • iii. 1 μM Compound to 10 μM • iv. 0.3 μM Compound to 3 μM • v. 0.1 μM Compound to 1 μM • b. Vehicle • i. PBS, equivalent to the volume used for 10 μM Compound (1× is ˜0.06% PBS) • c. Chemotherapeutic cocktail (1× to 10×): • i. 1 μM Velcade to 10 μM • ii. 100 μM Etoposide to 1 mM • iii. 20 μM Taxol to 200 μM • 4. Add 20 μl of the 10× compound/vehicle/chemotherapeutic cocktail to cells. • 5. Incubate at 37° C., 5% CO2 for 48 hours. • 6. Aspirate media. For suspension cells, spin plate at 1500 RPM for 10 minutes. Use a multichannel pipettor to slowly remove media. • 7. Add 200 μl of Thiazolyl Blue Tetrazolium Bromide (MTT) to each well: 0.863 mg/ml MTT in growth media.
(§3) Proliferation of several cancer cells was inhibited by compound TA1-1B (which is a particular mixture of the isomers represented by TA1-1A), as shown in the following table (Table 1). The value EC50 is the amount of Compound TA1-1B that results in 50% inhibition of proliferation of the indicated cell type.

Daudi = experiment: Inhibition of cell proliferation (MTT); format: cell-based; details: Homo sapiens, Lymphoma, 48 hours
Method: as §1, §2, §3

J45-01 = experiment: Inhibition of cell proliferation (MTT); format: cell-based; details: Homo sapiens; J45-01, Leukemia; 48 hours
Method: as §1, §2, §3

KM12 = experiment: Inhibition of cell proliferation (MTT); format: cell-based; details: Homo sapiens; KM12, Colon; 48 hours
Method: as §1, §2, §3

Karpas299 = experiment: Inhibition of cell proliferation (MTT); format: cell-based; details: Homo sapiens, KARPAS-299; Karpas299, Lymphoma; 48 hours
Method: as §1, §2, §3

Ku-812 = experiment: Inhibition of cell proliferation (MTT); format: cell-based; details: Homo sapiens, KU812; Ku-812, Leukemia; 48 hours
Method: as §1, §2, §3

M14 = experiment: Inhibition of cell proliferation (MTT); format: cell-based; details: Homo sapiens; M14, Melanoma; 48 hours
Method: as §1, §2, §3

MDA-MB-435 = experiment: Inhibition of cell proliferation (MTT); format: cell-based; details: Homo sapiens; MDA-MB-435, Breast; 48 hours
Method: as §1, §2, §3

MOLT-4 = experiment: Inhibition of cell proliferation (MTT); format: cell-based; details: Homo sapiens; MOLT-4, Leukemia; 48 hours
Method: as §1, §2, §3

Namalwa = experiment: Inhibition of cell proliferation (MTT); format: cell-based; details: Homo sapiens, Lymphoma, 48 hours
Method: as §1, §2, §3

SN12C = experiment: Inhibition of cell proliferation (MTT); format: cell-based; details: Homo sapiens, Renal, 48 hours
Method: as §1, §2, §3

U937 = experiment: Inhibition of cell proliferation (MTT); format: cell-based; details: Homo sapiens, U-937; U937, Lymphoma; 48 hours
Method: as §1, §2, §3

[1] = tested on: BZD (peripheral) peripheral Benzodiazepine receptor; experiment: Receptor binding
[2] = tested on: κ-opioid (KOP) opioid receptor; experiment: Receptor binding
[3] = TA1-1B in plasma, brain and tumor of HCT116 tumor-bearing mice; format: in vivo; details: 25.0 mg/kg single IV dose; for concentration at 15 min / concentration at 2 h: female, NCr nu/nu, mouse; for concentration at 15 min: 15 min post-dose; for concentration at 2 h: two hour post-dose
Excerpt: In vivo experiment protocols were approved by the Animal Use and Care Committee. Female NCr nu/nu mice were purchased from Taconic Farms and group housed in a ventilated rack system on a 12/12 light cycle. All housing materials and water were autoclaved prior to use. The mice were fed ad libitum with gamma-irradiated laboratory chow and acidified water. Animals were handled under laminar-flow hoods. Animals were inoculated subcutaneously in the right flank with 5×10̂6 HCT116 cells. Tumors were monitored twice weekly and then daily as they approached the appropriate size for study. On Day 1 of the study, the animals were randomized into n=3 treatment groups with group average tumor sizes of 109 mm^3.
where w=width and 1=length in mm of the tumor. Tumor weight was estimated with the assumption that 1 mg is equivalent to 1 mm^3 of tumor volume. Mice were dosed with compound TA1-1B at 25.0 mg/kg (single IV dose). At fifteen min and two hour time points, plasma, brain and tumor samples were collected from terminal mice and frozen. It was determined that the tumor contained 0.86 μM, plasma contained 0.74 μM and brain contained 1.47 μM of the therapeutic agent after 15 min post-dose, and the tumor contained 1.6 μM, plasma contained 0.41 μM and brain contained 0.8 μM of the therapeutic agent after the two hour post-dose.

[4] = Tissue distribution in rats (in vivo pharmacokinetic study); design: species or system Sprague Dawley rats
Method: Five groups (three animals per group) of male Sprague Dawley rats were assigned for in vivo pharmacokinetic study. • Group-1 animals were dosed intravenously with compound TA1-1B at 7.5 mg/kg and after 2 hr post-dose animals were terminated and whole blood, plasma, brain, bone marrow and adrenal gland collected. • Group-2 animals were dosed intravenously with compound TA1-1B at 7.5 mg/kg for five consecutive days. After 2 hr of the last dose (98 hr) animals were terminated and whole blood, plasma, brain, bone marrow and adrenal gland collected. • Group-3 animals were dosed intravenously with compound TA1-1B at 7.5 mg/kg for five consecutive days. After 26 hr of the last dose (122 hr) animals were terminated and whole blood, plasma, brain, bone marrow and adrenal gland collected. • Group-4 animals were dosed intravenously with compound TA1-1B at 7.5 mg/kg for five consecutive days. After 50 hr of the last dose (146 hr) animals were terminated and whole blood, plasma, brain, bone marrow and adrenal gland collected. • Group-5 animals were dosed intravenously with vehicle, terminated and whole blood, plasma, brain, bone marrow and adrenal gland collected. Tissues obtained from this group of animals were used for corresponding matrix preparation in subsequent bioanalysis.
After administration the compound TA1-1B quickly reaches those tissues (after 2 hr) and subsequently gets cleared.

[5] = brain, read-out: Concentration in brain
[6] = plasma, read-out: Concentration in plasma
[7] = tumor, read-out: Concentration in tumor
[8] = 7.5 mg/kg intravenously (FIG. 3)
[9] = 7.5 mg/kg intravenously, time point not stated, unit from FIG. 2 legend

Compound: CN1CCC[C@H]1CCNC(=O)c1cn2c3c(c(N4CCC(c5cnccn5)C4)c(F)cc3c1=O)Oc1cc3ccccc3cc1-2 (stereo partly drawn) [TA1-1B]
- EC50 (786-0): 4.34 µM
- EC50 (Daudi): 1.29 µM
- EC50 (J45-01): 1.89 µM
- EC50 (KM12): 3.06 µM
- EC50 (Karpas299): 3.92 µM
- EC50 (Ku-812): 4.19 µM
- EC50 (M14): 4.98 µM
- EC50 (MDA-MB-435): 3.63 µM
- EC50 (MOLT-4): 1.21 µM
- EC50 (Namalwa): 1.42 µM
- EC50 (SN12C): 4.16 µM
- EC50 (U937): 4.54 µM
- % inhibition @ 1 uM [1]: 65%
- % inhibition @ 1 uM [2]: 52%
- Blood-brain barrier permeation ([3]; heading of Example 3): Permeates the Blood-Brain Barrier
- concentration at 15 min [3, 5]: 1470 nM
- concentration at 2 h [3, 5]: 800 nM
- concentration at 15 min [3, 6]: 740 nM
- concentration at 2 h [3, 6]: 410 nM
- concentration at 15 min [3, 7]: 860 nM
- concentration at 2 h [3, 7]: 1600 nM
- Exposure in adrenal glands and bone marrow relative to other tissues [4, 8]: highest exposures
- Retention in adrenal glands and bone marrow versus brain [4, 8]: retains longer
- Elimination from rat brain tissue ([4]; 7.5 mg/kg intravenously QDx5, over 48 hr post-dose (FIG. 2)): almost completely eliminates
- Concentration in brain tissue [4, 9]: 1600 nM
- Concentration in plasma [4, 9]: 200 nM
- Concentration in whole blood [4, 9]: 500 nM
